Test results: patent publication US20090176288A1, “Methods and Compositions for Butanol Production” (priority 2006, published 2009)
Read-outs that look alike come from different tables or passages of the source.

How the values were obtained:
[1] = test system: BUT-R/1 mutant (ATCC No. PTA-8515); conditions: 3 days, 37° C.
Experimental: (§1) But-R/1 mutant (ATCC No. PTA-8515), a derivative of C. acetobutylicum ATCC 824, was produced via long-term incubation of wild-type C. acetobutylicum 824 in reinforced Clostridium medium (“RCM”) with glucose (0.5%) and butanol (2.5% v/v) under anaerobic conditions at 37° C. When turbidity developed, the bacterial suspension was spread onto RCM agar with 2.5% butanol. […] Mutants were purified twice using RCM agar containing 2.5% of butanol. […] Cells were grown for 3 days in RCM medium in an anaerobic jar at 37° C. Optical density of cell suspensions was measured at 600 nm spectrophotometrically.

[2] = test system: Clostridium acetobutylicum ATCC 824 (wild type); conditions: 3 days, 37° C.
Experimental: as §1

[3] = test system: omrA/pCR-II TOPO/TOP10 E. coli cells
Experimental: Survival rates of E. coli strains with and without the omrA-plasmid were determined. […] For this experiment, the omrA gene was inserted into the expression plasmid pCR-Blunt II-TOPO (invitrogen, Carlsbad, Calif.) hosted by the TOP10 E. coli strain [F-mcrA Δ (mcr-hsdRMS-mcrBC) Φ)80lacZ ΔM15 ΔlacX74 recA1 deoR araD139 Δ (ara-leu)7697 galU galK rpsL (Str^R) endA1 nupG]. The plasmid with no insertion was used as a control. Flasks (50 ml) containing 10 ml of LB broth with 50 μg/ml kanamycin were inoculated with 100 μl of bacterial cells grown overnight at 37° C. in the same medium and incubated at 37° C. with aeration (200 rpm) for 4 hours. Bacterial growth was stopped by adding chloramphenicol (100 μg/ml) and optical density of cell cultures measured spectrophotometrically at 600 nm.

butanol
Growth inhibition, Mutant ([1]; butanol 0.3 % (v/v)): 0
Growth inhibition, Mutant ([1]; butanol 0.6 % (v/v)): 0
Growth inhibition, Mutant ([1]; butanol 0.9 % (v/v)): 0
Growth inhibition, Mutant ([1]; butanol 1.2 % (v/v)): 23.2
Growth inhibition, Mutant ([1]; butanol 1.5 % (v/v)): 73.8
Growth inhibition, Mutant ([1]; butanol 1.8 % (v/v)): 84.2
Growth inhibition, WT ([2]; butanol 0.3 % (v/v)): 8.4
Growth inhibition, WT ([2]; butanol 0.6 % (v/v)): 40.4
Growth inhibition, WT ([2]; butanol 0.9 % (v/v)): 56.1
Growth inhibition, WT ([2]; butanol 1.2 % (v/v)): 89.7
Growth inhibition, WT ([2]; butanol 1.5 % (v/v)): 94.2
Growth inhibition, WT ([2]; butanol 1.8 % (v/v)): 99.5
resistance to butanol compared with E. coli TOPO10 host cells ([3]; FIG. 2): slightly more resistant
bacterial survival in presence of butanol compared with host strain with no omrA gene ([3]; FIG. 3, varying levels of butanol): increased bacterial survival significantly
